# Assay results reported in patent publication US5262521A (SRI International, priority 1991, dated 1993).
# Where a SMILES comes first, the peptide text is derived from it. Where no end group is shown, it is not given here. [ ]: non-standard residue; d: D form. The star is where a group is joined. Boc = CC(C)(C)OC(=O)*
# Key:
# [1] = target: atrial peptide-degrading enzyme (ADE); test: Inhibition of ADE activity (AcAPI production from 50 μM AcAPII, HPLC); type: biochemical, bovine; conditions: Table 10
# Protocol: The concentration of enzyme and AcAPII were chosen so that approximately 80% of the AcAPII was degraded in the absence of inhibitor. The production of AcAPI was determined by integration of the AcI peak, and percent inhibition by the inhibitors was calculated.
# (e.) Enzyme Inhibitor Testing: To further characterize ADE, the extent of inhibition by several known peptidase inhibitors was determined.
# [2] = system: spontaneously hypertensive rats; test: Blood pressure and heart rate measurements in spontaneously hypertensive rats; type: in vivo, rat; set-up: Diastolic Blood Pressure, Mean Change From Control: unit not given here
# Protocol: This experiment was carried out to evaluate the effects of an ADE inhibitor compound of the invention upon blood pressure (systolic and diastolic) and heart rate in spontaneously hypertensive rats ("SHR"). Twenty-eight male SHR, weighing 200-300 g at the initiation of study, having a systolic blood pressure of 160 mm Hg or higher, and obtained from Charles River Laboratories (Wilmington, Mass.), were tested over a nine-day period. The animal room environment and photoperiod were controlled (temperature approximately 22° C.±3° C., humidity of 40 to 70%, 12 h light, 12 h dark), as was diet.
# The compounds to be administered (compound (V), above, and rat ANF ("rANF")) were dissolved in a 0.9% saline solution and administered intravenously. The test animals were divided into seven distinct groups for purposes of dose administration, as follows:
# Group 1. Four SHR rats were infused with 100 pmole/minute of RANF (0.026 ml/minute) for 20 minutes.
# Group 2. Four SHR rats were administered an i.v. bolus of 2 mg/kg of compound (V).
# Group 3. Four SHR rats were administered an i.v. bolus of 10 mg/kg of compound (V).
# Group 4. Four SHR rats were infused with 0.2 mg/kg/min of compound (V) (0.026 ml/minute) for 20 minutes.
# Group 5. Four SHR rats were administered an i.v. bolus of 2 mg/kg of compound (V) and then infused with 100 pmole/minute of RANF (0.026 ml/minute for 20 minutes.
# Group 6. Four SHR rats were administered an i.v. bolus of 10 mg/kg of compound (V) and then infused with 100 pmole/minute of RANF (0.026 ml/minute) for 20 minutes.
# Group 7. Four SHR rats were infused with 0.2 mg/kg/min of compound (V) (0.026 ml/minute) for 20 minutes and then infused with 100 pmole/minute of RANF ([…]) for 20 minutes.
# Blood pressure and heart rate determinations were made at 5 minute intervals for 20 minutes prior to dose and at 5 minute intervals for a minimum of 40 minutes following the initiation of test article administration or until a return to control values was realized. Blood pressure was measured continuously for one minute using a Statham P23Db pressure transducer (Statham Instruments, Hata Rey, Puerto Rico), and a Grass Model 7 Polygraph (Glass Instrument Company, Quincy, Mass.). Heart rate was measured using a Narco biotachometer BT-1200 (Narco Biosystems, Houston, Tex.).
# [3] = system: atrial peptide-degrading enzyme (ADE); test: Degradation of peptide substrates by atrial peptide-degrading enzyme preparation (HPLC); type: biochemical, bovine; conditions: 50 μM substrate, 37° C.
# Protocol: (c.) ADE Substrate and Inhibitor Studies: To study substrate selectivity of the atrial peptide-degrading enzyme, the pooled fractions from the Dynamax HPLC ion exchange, or Sephacryl S-200 columns, were incubated with 50 μM synthetic substrate and incubated at 37° C. for one or two hours. At the appropriate time, the samples were boiled, centrifuged and analyzed on the Vydac column as described above. The amount of substrate present after the incubation, as determined by integration of the HPLC peak, was compared with the initial substrate level.
# [4] = system: atrial peptide-degrading enzyme (ADE); test: pooled fractions from the Dynamax HPLC ion exchange, or Sephacryl S-200 columns (ADE isolated from bovine kidney cortex); conditions: 37° C., up to two hours
# [5] = (V) 20 min. infusion 0.2 mg/kg/min. i.v., interval 0 min
# [6] = (V) 20 min. infusion 0.2 mg/kg/min. i.v., interval 5 min
# [7] = (V) 20 min. infusion 0.2 mg/kg/min. i.v., interval 10 min
# [8] = (V) 20 min. infusion 0.2 mg/kg/min. i.v., interval 15 min
# [9] = (V) 20 min. infusion 0.2 mg/kg/min. i.v., interval 20 min
# [10] = (V) 20 min. infusion 0.2 mg/kg/min. i.v., interval 25 min
# [11] = (V) 20 min. infusion 0.2 mg/kg/min. i.v., interval 30 min
# [12] = (V) 20 min. infusion 0.2 mg/kg/min. i.v., interval 35 min
# [13] = (V) 20 min. infusion 0.2 mg/kg/min. i.v., interval 40 min
# [14] = (V) bolus injection 2 mg/kg i.v., interval 0 min
# [15] = (V) bolus injection 2 mg/kg i.v., interval 5 min
# [16] = (V) bolus injection 2 mg/kg i.v., interval 10 min
# [17] = (V) bolus injection 2 mg/kg i.v., interval 15 min
# [18] = (V) bolus injection 2 mg/kg i.v., interval 20 min
# [19] = (V) bolus injection 2 mg/kg i.v., interval 25 min
# [20] = (V) bolus injection 2 mg/kg i.v., interval 30 min
# [21] = (V) bolus injection 2 mg/kg i.v., interval 35 min
# [22] = (V) bolus injection 2 mg/kg i.v., interval 40 min
# [23] = (V) bolus injection 10 mg/kg i.v., interval 0 min
# [24] = (V) bolus injection 10 mg/kg i.v., interval 5 min
# [25] = (V) bolus injection 10 mg/kg i.v., interval 10 min
# [26] = (V) bolus injection 10 mg/kg i.v., interval 15 min
# [27] = (V) bolus injection 10 mg/kg i.v., interval 20 min
# [28] = (V) bolus injection 10 mg/kg i.v., interval 25 min
# [29] = (V) bolus injection 10 mg/kg i.v., interval 30 min
# [30] = (V) bolus injection 10 mg/kg i.v., interval 35 min
# [31] = (V) bolus injection 10 mg/kg i.v., interval 40 min
# [32] = (V) bolus injections at 2 and 10 mg/kg
# [33] = (V) infusion 0.2 mg/kg/minute for 20 minutes
compound,measurement,setting,value
"CC(C)C[C@H](NC(=O)[C@@H](N)CO)C(=O)N[C@@H](CCCNC(=N)N)C(=O)N[C@@H](CCCNC(=N)N)C(=O)N[C@@H](CO)C(=O)N[C@@H](CO)C(=O)N[C@H](C)C(=O)NCC(=O)N[C@H](C)C(=O)N[C@@H](CC(N)=O)C(=O)N[C@@H](CS)C(=O)N[C@H](Cc1ccccc1)C(=O)N[C@@H](CCCNC(=N)N)C(=O)N[C@@H](Cc1ccc(O)cc1)C(N)=O [(V), Ser-Leu-Arg-Arg-Ser-Ser-DAla-Gly-DAla-Asn-Cys-DPhe-Arg-Tyr-NH2] (H-SLRRSS[dA]G[dA]NC[dF]RY-NH2)",IC50,[1],14.5 µM
same,% Inhibition At 0.1 mM,[1]; 0.1 mM,81%
same,"Diastolic Blood Pressure, Mean Change From Control",[2]; [5],-4
same,"Systolic Blood Pressure, Mean Change From Control",[2]; [5],-1
same,"Diastolic Blood Pressure, Mean Change From Control",[2]; [6],-12
same,"Systolic Blood Pressure, Mean Change From Control",[2]; [6],-10
same,"Diastolic Blood Pressure, Mean Change From Control",[2]; [7],-15
same,"Systolic Blood Pressure, Mean Change From Control",[2]; [7],-18
same,"Diastolic Blood Pressure, Mean Change From Control",[2]; [8],-18
same,"Systolic Blood Pressure, Mean Change From Control",[2]; [8],-16
same,"Diastolic Blood Pressure, Mean Change From Control",[2]; [9],-20
same,"Systolic Blood Pressure, Mean Change From Control",[2]; [9],-26
same,"Diastolic Blood Pressure, Mean Change From Control",[2]; [10],-13
same,"Systolic Blood Pressure, Mean Change From Control",[2]; [10],-16
same,"Diastolic Blood Pressure, Mean Change From Control",[2]; [11],-14
same,"Systolic Blood Pressure, Mean Change From Control",[2]; [11],-9
same,"Diastolic Blood Pressure, Mean Change From Control",[2]; [12],0
same,"Systolic Blood Pressure, Mean Change From Control",[2]; [12],0
same,"Diastolic Blood Pressure, Mean Change From Control",[2]; [13],-2
same,"Systolic Blood Pressure, Mean Change From Control",[2]; [13],+5
same,Duration of the blood pressure lowering following administration,[2]; (V) bolus 2 mg/kg,20 min
same,Duration of the blood pressure lowering following administration,[2]; (V) bolus 10 mg/kg,35 min
same,"Diastolic Blood Pressure, Mean Change From Control",[2]; [14],-61
same,"Systolic Blood Pressure, Mean Change From Control",[2]; [14],-80
same,"Diastolic Blood Pressure, Mean Change From Control",[2]; [15],-40
same,"Systolic Blood Pressure, Mean Change From Control",[2]; [15],-50
same,"Diastolic Blood Pressure, Mean Change From Control",[2]; [16],-14
same,"Systolic Blood Pressure, Mean Change From Control",[2]; [16],-30
same,"Diastolic Blood Pressure, Mean Change From Control",[2]; [17],-8
same,"Systolic Blood Pressure, Mean Change From Control",[2]; [17],-14
same,"Diastolic Blood Pressure, Mean Change From Control",[2]; [18],-10
same,"Systolic Blood Pressure, Mean Change From Control",[2]; [18],-13
same,"Diastolic Blood Pressure, Mean Change From Control",[2]; [19],+1
same,"Systolic Blood Pressure, Mean Change From Control",[2]; [19],-4
same,"Diastolic Blood Pressure, Mean Change From Control",[2]; [20],+5
same,"Systolic Blood Pressure, Mean Change From Control",[2]; [20],+1
same,"Diastolic Blood Pressure, Mean Change From Control",[2]; [21],+7
same,"Systolic Blood Pressure, Mean Change From Control",[2]; [21],+2
same,"Diastolic Blood Pressure, Mean Change From Control",[2]; [22],0
same,"Systolic Blood Pressure, Mean Change From Control",[2]; [22],+4
same,"Diastolic Blood Pressure, Mean Change From Control",[2]; [23],-66
same,"Systolic Blood Pressure, Mean Change From Control",[2]; [23],-76
same,"Diastolic Blood Pressure, Mean Change From Control",[2]; [24],-76
same,"Systolic Blood Pressure, Mean Change From Control",[2]; [24],-119
same,"Diastolic Blood Pressure, Mean Change From Control",[2]; [25],-61
same,"Systolic Blood Pressure, Mean Change From Control",[2]; [25],-100
same,"Diastolic Blood Pressure, Mean Change From Control",[2]; [26],-55
same,"Systolic Blood Pressure, Mean Change From Control",[2]; [26],-84
same,"Diastolic Blood Pressure, Mean Change From Control",[2]; [27],-35
same,"Systolic Blood Pressure, Mean Change From Control",[2]; [27],-55
same,"Diastolic Blood Pressure, Mean Change From Control",[2]; [28],-27
same,"Systolic Blood Pressure, Mean Change From Control",[2]; [28],-41
same,"Diastolic Blood Pressure, Mean Change From Control",[2]; [29],-17
same,"Systolic Blood Pressure, Mean Change From Control",[2]; [29],-29
same,"Diastolic Blood Pressure, Mean Change From Control",[2]; [30],-15
same,"Systolic Blood Pressure, Mean Change From Control",[2]; [30],-21
same,"Diastolic Blood Pressure, Mean Change From Control",[2]; [31],+10
same,"Systolic Blood Pressure, Mean Change From Control",[2]; [31],+9
same,"Effect on systolic and diastolic blood pressure, in words",[2]; [32],Dose-related decreases in systolic and diastolic blood pressure
same,Effect upon heart rate,[2]; [32],No effects upon heart rate
same,Duration of blood pressure decrease following the conclusion of the dose,[2]; [33],10 min
same,"Effect on systolic and diastolic blood pressure, in words",[2]; [33],minimal decreases in systolic and diastolic blood pressure
same,Effect upon heart rate,[2]; [33],No effects upon heart rate
COC(=O)[C@H](Cc1ccccc1)NC(=O)[C@H](CO)NC(=O)[C@H](CC(N)=O)NC(=O)OC(C)(C)C [Boc--Asn--Ser--Phe--OCH3] (Boc-Asn-Ser-Phe-OMe),% Degraded (small peptides),[3]; one or two hours,0%
"CC(C)C[C@H](NC(=O)CNC(=O)[C@H](Cc1ccc(O)cc1)NC(=O)[C@H](CO)NC(=O)[C@H](Cc1c[nH]c2ccccc12)NC(=O)[C@H](Cc1c[nH]cn1)NC(=O)[C@@H]1CCC(=O)N1)C(=O)N[C@@H](CCCNC(=N)N)C(=O)N1CCC[C@H]1C(=O)NCC(N)=O [LHRH, pGlu--His--Trp--Ser--Tyr--Gly--Leu--Arg--Pro--Gly-NH2]",% Degraded 1 h,[3],0%
"ANF: atrial natriuretic factor, carboxy terminal 28 amino acid fragment of α-ANF",% Degraded 1 h,[3],> 95%
"API: rat atriopeptin I, atrial peptide prepared by solid phase synthesis (SSCFGGRIDRIGAQSGLGCNS; ends and bridges not checked; cysteine pairing not given here; UniProt P01161 127-147, looked up)",% Degraded 1 h,[3],0%
same,% Degraded 2 h,[3]; 2 h,0%
Asn--Ser--Phe--Arg--Tyr,not cleaved,[4],8% degraded
Boc-Asn-Ser-Phe-OMe,not cleaved,[4],0% degraded
DVNTDRPG,not cleaved,[4],"4% degraded at 1 h, 6% degraded at 2 h"
Hip--Ser--Phe--Arg,not cleaved,[4],0% degraded
LYKKIIKKLLES,not cleaved,[4],0% degraded at 2 h
pGlu--His--Trp--Ser--Tyr--Gly--Leu--Arg--Pro--Gly-NH2,not cleaved,[4],0% degraded at 1 h
